Data taken from patent US7192931B2, “Treatment of demyelinating diseases” (Neuren Pharmaceuticals Ltd., priority 2000, dated 2007).

Assays:
EAE = settings: Smith et al., 2000, Pitt et al.; cited from earlier work
oligodendrocytes = settings: Smith et al., 2000, Pitt et al.; cited from earlier work
[1] = system: dephosphorylated neurofilament-H; assay: Axonal damage: dephosphorylated neurofilament-H in spinal cord (Western blot, immunohistochemistry); type: in vivo, mouse; settings: for average relative densities of neurofilament-H: spinal cord homogenates, Western blot, 6.1 for rat IgG or PBS treated control mice; for effect on amount of axonal damage: spinal cord, dephosphorylated neurofilament-H
From the text: Frozen sections from lumbar spinal cord (10 μm) were acetone-fixed and immunostained for oligodendrocyte content with an antibody against CNPase (Sigma; diluted 1:100); for axonal damage with an antibody against non-phosphorylated neurofilament-H (SM 1-32; Stemberger Monoclonals Incorporated, Lutherville, Md., USA; diluted 1:1000), and for GluR2 and NR1 content using mouse mAbs obtained from Zymed Laboratories Inc., Carlton, San Francisco, Calif. Antibody staining was visualized with an avidin:biotinylated enzyme complex (Vector Laboratories, Burlingame, Calif., USA). Sections were viewed under a light microscope, and cells stained with the anti-CNPase and SM 1-32 antibodies were counted.
PBS-perfused spinal cords were homogenized in lysis buffer (50 mM Tris pH 7.4, 100 μM EDTA, 0.25 M sucrose, 1% sodium dodecyl sulfate [SDS], 1% Nonidet P-40 [NP40], 1 μg/mL leupeptin, 1 μg/mL pepstatin A, and 100 μM phenylmethylsulfonylfluoride) at 4° C. using a motor-driven homogenizer (Virtus, Gardiner, N.Y.). Spinal cord lysates from each group of mice were pooled and centrifuged at 10000 g for 10 minutes at 4° C. to remove tissue debris. Protein concentrations of the supernatants were determined as described (Peterson, 1983), and 100 μg of protein resolved on 10% polyacrylamide SDS-gels under reducing conditions and then electrophoretically transferred to Hybond C Extra nitrocellulose membranes (Amersham Life Science, England). The membranes were blocked with 3% bovine serum albumin in TBS-T (20 mM Tris, 137 mM NaCl, pH 7.6 containing 0.1% Tween-20) for 2 hours at room temperature. Immunodetection was accomplished by incubation overnight at 4° C. with SM1-32 (1:500 dilution), anti-CNPase (1:100 dilution) antibody, or anti-GluR2 and NR1 mAbs (1:200 dilution). The membranes were washed thrice with TBS-T and incubated with horseradish peroxidase-conjugated anti-mouse IgG (Sigma) diluted 1:5000 in TBS-T. Immunoreactivity was detected by Enhanced Chemiluminescence (Amersham International plc. England) and autoradiography.

[2] = system: N-methyl-D-aspartate (NMDA) receptor; settings: U.S. Pat. No. 5,804,550; cited from earlier work
hippocampus neurons = settings: Saura et al., 1999; cited from earlier work

Row | Compound | pathogenesis of EAE (EAE) | excitotoxic effects of glutamate on oligodendrocytes (oligodendrocytes) | average relative densities of neurofilament-H [1] | effect on amount of axonal damage [1] | glutamate binding to the NMDA receptor [2] | neuronal death in the hippocampus injured by NMDA (hippocampus neurons)
1 | NS(=O)(=O)c1cccc2c1c([N+](=O)[O-])cc1nc(O)c(O)nc12 [NBQX, 2,3-dihydroxy-6-nitro-7-sulfamoylbenzo(f)quinoxaline] | slightly ameliorates the pathogenesis of EAE | inhibits the excitotoxic effects of glutamate on oligodendrocytes | 3.5 | almost halved the amount of axonal damage | – | –
2 | Gly-Pro-Glu [GPE] | – | – | 3.2 | almost halved the amount of axonal damage | inhibits glutamate binding | prevents neuronal death
